Legend:
[1] = compound: O=C(Nc1ccc2[nH]nc(-c3ccncc3)c2c1)[C@@H]1CCN(CC(=O)N2CCN(c3ccc(-c4ncccn4)cc3)CC2)C1; conditions: max 5 µM
How it was run: (§1)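 Cancer cell lines were seeded into 1536-well plates in 7.5 μl medium (DMEM/F12 or RPMI, 10% FBS), held 24 hours at 37°C and 5% CO2, and dosed for 72 hours with final DMSO typically 0.2%. Luminescence from CellTiter-Glo 2.0, scaled between blank-well and DMSO-well means, served as viability. The single-agent IC50 was obtained from dose-response fits with a non-linear mixed effects model, each fit being a two-parameter logistic curve.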

AZD1775 = compound: C=CCn1c(=O)c2cnc(Nc3ccc(N4CCN(C)CC4)cc3)nc2n1-c1cccc(C(C)(C)O)n1 [AZD1775]; conditions: max 3 µM
How it was run: as §1

Alisertib = compound: COc1cc(Nc2ncc3c(n2)-c2ccc(Cl)cc2C(c2c(F)cccc2OC)=NC3)ccc1C(=O)O [Alisertib]; conditions: max 10 µM
How it was run: as §1

AZD4320 = compound: CN(CC[C@H](CSC1=CC=CC=C1)NC2=C(C=C(C=C2)S(=O)(=O)NC(=O)C3=CC=C(C=C3)N4CCC(CC4)[C@H](C5=CC=CC=C5C6=CC=C(C=C6)Cl)O)S(=O)(=O)C(F)(F)F)CCO [AZD4320]; conditions: max 1 µM
How it was run: as §1

Paclitaxel = compound: CC(=O)O[C@H]1C(=O)[C@@]2(C)[C@H]([C@H](OC(=O)c3ccccc3)[C@]3(O)C[C@H](OC(=O)[C@H](O)[C@@H](NC(=O)c4ccccc4)c4ccccc4)C(C)=C1C3(C)C)[C@]1(OC(C)=O)CO[C@@H]1C[C@@H]2O [Paclitaxel]; conditions: max 3 µM
How it was run: as §1

AZD6738 = compound: C[C@@H]1COCCN1C2=NC(=NC(=C2)C3(CC3)[S@](=N)(=O)C)C4=C5C=CNC5=NC=C4 [AZD6738]; conditions: max 10 µM
How it was run: as §1

Crizotinib = compound: C[C@@H](Oc1cc(-c2cnn(C3CCNCC3)c2)cnc1N)c1c(Cl)ccc(F)c1Cl [Crizotinib]; conditions: max 10 µM
How it was run: as §1

AZD1390 = compound: CC(C)n1c(=O)n(C)c2cnc3cc(F)c(-c4ccc(OCCCN5CCCCC5)nc4)cc3c21 [AZD1390]; conditions: max 0.3 µM
How it was run: as §1

Etoposide = compound: COc1cc([C@@H]2c3cc4c(cc3[C@@H](O[C@@H]3O[C@@H]5CO[C@@H](C)O[C@H]5[C@H](O)[C@H]3O)[C@H]3COC(=O)[C@H]23)OCO4)cc(OC)c1O [Etoposide]; conditions: max 10 µM
How it was run: as §1

Olaparib = compound: O=C(c1cc(Cc2n[nH]c(=O)c3ccccc23)ccc1F)N1CCN(C(=O)C2CC2)CC1 [Olaparib]; conditions: max 10 µM
How it was run: as §1

Prexasertib = compound: COc1cccc(OCCCN)c1-c1cc(Nc2cnc(C#N)cn2)n[nH]1 [Prexasertib]; conditions: max 1 µM
How it was run: as §1

Palbociclib = compound: CC(=O)c1c(C)c2cnc(Nc3ccc(N4CCNCC4)cn3)nc2n(C2CCCC2)c1=O [Palbociclib]; conditions: max 10 µM
How it was run: as §1

Savolitinib = compound: C[C@@H](c1ccc2nccn2c1)n1nnc2ncc(-c3cnn(C)c3)nc21 [Savolitinib]; conditions: max 1 µM
How it was run: as §1

SG3199 = compound: CC1=CN2[C@@H](C1)C=NC3=CC(=C(C=C3C2=O)OC)OCCCCCOC4=C(C=C5C(=C4)N=C[C@@H]6CC(=CN6C5=O)C)OC [SG3199]; conditions: max 0.001 µM
How it was run: as §1

Carboplatin = compound: C1CC(C1)(C(=O)[O-])C(=O)[O-].N.N.[Pt+2] [Carboplatin]; conditions: max 10 µM
How it was run: as §1

MK-2206 = compound: NC1(c2ccc(-c3nc4ccn5c(=O)[nH]nc5c4cc3-c3ccccc3)cc2)CCC1 [MK-2206]; conditions: max 10 µM
How it was run: as §1

5-Fluorouracil = compound: O=c1[nH]cc(F)c(=O)[nH]1 [5-Fluorouracil]; conditions: max 20 µM
How it was run: as §1

AZD7648 = compound: Cc1cc2ncnn2cc1Nc1ncc2c(n1)n(C1CCOCC1)c(=O)n2C [AZD7648]; conditions: max 10 µM
How it was run: as §1

SN-38 = compound: CCc1c2c(nc3ccc(O)cc13)-c1cc3c(c(=O)n1C2)COC(=O)[C@]3(O)CC [SN-38]; conditions: max 0.3 µM
How it was run: as §1

AZD2811 = compound: CCN(CCO)CCCOc1ccc2c(Nc3cc(CC(=O)Nc4cccc(F)c4)[nH]n3)ncnc2c1 [AZD2811]; conditions: max 1 µM
How it was run: as §1

Trametinib = compound: CC(=O)Nc1cccc(-n2c(=O)n(C3CC3)c(=O)c3c(Nc4ccc(I)cc4F)n(C)c(=O)c(C)c32)c1 [Trametinib]; conditions: max 1 µM
How it was run: as §1

Gefitinib = compound: COc1cc2ncnc(Nc3ccc(F)c(Cl)c3)c2cc1OCCCN1CCOCC1 [Gefitinib]; conditions: max 10 µM
How it was run: as §1

Gemcitabine = compound: Nc1ccn([C@@H]2O[C@H](CO)[C@@H](O)C2(F)F)c(=O)n1 [Gemcitabine]; conditions: max 0.3 µM
How it was run: as §1

Selumetinib = compound: Cn1cnc2c(F)c(Nc3ccc(Br)cc3Cl)c(C(=O)NOCCO)cc21 [Selumetinib]; conditions: max 10 µM
How it was run: as §1

AZD8186 = compound: C[C@@H](Nc1cc(F)cc(F)c1)c1cc(C(=O)N(C)C)cc2c(=O)cc(N3CCOCC3)oc12 [AZD8186]; conditions: max 10 µM
How it was run: as §1

AZD5991 = compound: Cc1c2c(nn1C)CSCc1cc(n(C)n1)CSc1cc(c3ccccc3c1)OCCCc1c(C(=O)O)n(C)c3c-2c(Cl)ccc13 [AZD5991]; conditions: max 1 µM
How it was run: as §1

Taselisib = compound: Cc1nc(-c2cn3c(n2)-c2ccc(-c4cnn(C(C)(C)C(N)=O)c4)cc2OCC3)n(C(C)C)n1 [Taselisib]; conditions: max 10 µM
How it was run: as §1

Lapatinib = compound: CS(=O)(=O)CCNCc1ccc(-c2ccc3ncnc(Nc4ccc(OCc5cccc(F)c5)c(Cl)c4)c3c2)o1 [Lapatinib]; conditions: max 10 µM
How it was run: as §1

AZD5153 = compound: COc1nnc2ccc(N3CCC(c4ccc(OCCN5CCN(C)C(=O)[C@H]5C)cc4)CC3)nn12 [AZD5153]; conditions: max 1 µM
How it was run: as §1

Venetoclax = compound: CC1(C)CCC(CN2CCN(c3ccc(C(=O)NS(=O)(=O)c4ccc(NCC5CCOCC5)c([N+](=O)[O-])c4)c(Oc4cnc5[nH]ccc5c4)c3)CC2)=C(c2ccc(Cl)cc2)C1 [Venetoclax]; conditions: max 1 µM
How it was run: as §1

SRA737 = compound: N#Cc1cnc(Nc2cc(NC[C@H]3CNCCO3)c(C(F)(F)F)cn2)cn1 [SRA737]; conditions: max 10 µM
How it was run: as §1

AZD0156 = compound: CN(C)CCCOc1ccc(-c2ccc3ncc4c(c3c2)n(C2CCOCC2)c(=O)n4C)cn1 [AZD0156]; conditions: max 3 µM
How it was run: as §1

AZD5363 = compound: C1CN(CCC1(C(=O)N[C@@H](CCO)C2=CC=C(C=C2)Cl)N)C3=NC=NC4=C3C=CN4 [AZD5363]; conditions: max 10 µM
How it was run: as §1

Doxorubicin = compound: COc1cccc2c1C(=O)c1c(O)c3c(c(O)c1C2=O)C[C@@](O)(C(=O)CO)C[C@@H]3O[C@H]1C[C@H](N)[C@H](O)[C@H](C)O1 [Doxorubicin]; conditions: max 1 µM
How it was run: as §1

Dasatinib = compound: CC1=C(C(=CC=C1)Cl)NC(=O)C2=CN=C(S2)NC3=CC(=NC(=N3)C)N4CCN(CC4)CCO [Dasatinib]; conditions: max 2 µM
How it was run: as §1

Row | Cell Line | IC50, cell viability 72 h [1] | IC50, cell viability 72 h (AZD1775) | IC50, cell viability 72 h (Alisertib) | IC50, cell viability 72 h (AZD4320) | IC50, cell viability 72 h (Paclitaxel) | IC50, cell viability 72 h (AZD6738) | IC50, cell viability 72 h (Crizotinib) | IC50, cell viability 72 h (AZD1390) | IC50, cell viability 72 h (Etoposide) | IC50, cell viability 72 h (Olaparib) | IC50, cell viability 72 h (Prexasertib) | IC50, cell viability 72 h (Palbociclib) | IC50, cell viability 72 h (Savolitinib) | IC50, cell viability 72 h (SG3199) | IC50, cell viability 72 h (Carboplatin) | IC50, cell viability 72 h (MK-2206) | IC50, cell viability 72 h (5-Fluorouracil) | IC50, cell viability 72 h (AZD7648) | IC50, cell viability 72 h (SN-38) | IC50, cell viability 72 h (AZD2811) | IC50, cell viability 72 h (Trametinib) | IC50, cell viability 72 h (Gefitinib) | IC50, cell viability 72 h (Gemcitabine) | IC50, cell viability 72 h (Selumetinib) | IC50, cell viability 72 h (AZD8186) | IC50, cell viability 72 h (AZD5991) | IC50, cell viability 72 h (Taselisib) | IC50, cell viability 72 h (Lapatinib) | IC50, cell viability 72 h (AZD5153) | IC50, cell viability 72 h (Venetoclax) | IC50, cell viability 72 h (SRA737) | IC50, cell viability 72 h (AZD0156) | IC50, cell viability 72 h (AZD5363) | IC50, cell viability 72 h (Doxorubicin) | IC50, cell viability 72 h (Dasatinib)
1 | NCI-H727 (Other Solid Carcinomas) | 0.833 µM | 2.6 µM | > 10 µM | > 1 µM | > 3 µM | > 10 µM | > 10 µM | > 0.3 µM | > 10 µM | > 10 µM | 0.0759 µM | > 10 µM | > 1 µM | > 0.001 µM | > 10 µM | > 10 µM | > 20 µM | > 10 µM | > 0.3 µM | > 1 µM | 0.0392 µM | > 10 µM | > 0.3 µM | 1.12 µM | > 10 µM | > 1 µM | 2.5 µM | > 10 µM | > 1 µM | > 1 µM | > 10 µM | > 3 µM | > 10 µM | > 1 µM | > 2 µM
2 | RF-48 (B-Cell Non-Hodgkin's Lymphoma) | > 5 µM | 1.45 µM | > 10 µM | 0.0247 µM | 0.0199 µM | > 10 µM | > 10 µM | > 0.3 µM | > 10 µM | > 10 µM | 0.132 µM | > 10 µM | > 1 µM | > 0.001 µM | > 10 µM | > 10 µM | > 20 µM | > 10 µM | 0.0212 µM | > 1 µM | > 1 µM | > 10 µM | 0.0827 µM | > 10 µM | > 10 µM | > 1 µM | > 10 µM | > 10 µM | > 1 µM | > 1 µM | > 10 µM | > 3 µM | > 10 µM | 0.424 µM | > 2 µM
3 | KYSE-450 (Esophageal Squamous Cell Carcinoma) | > 5 µM | 0.614 µM | > 10 µM | > 1 µM | 0.0677 µM | > 10 µM | > 10 µM | > 0.3 µM | > 10 µM | > 10 µM | 0.226 µM | > 10 µM | > 1 µM | > 0.001 µM | > 10 µM | > 10 µM | > 20 µM | > 10 µM | > 0.3 µM | > 1 µM | > 1 µM | > 10 µM | > 0.3 µM | > 10 µM | > 10 µM | > 1 µM | 7.52 µM | > 10 µM | > 1 µM | > 1 µM | > 10 µM | > 3 µM | > 10 µM | > 1 µM | > 2 µM
4 | UACC-62 (Melanoma) | 0.0846 µM | > 3 µM | > 10 µM | > 1 µM | 0.598 µM | > 10 µM | > 10 µM | > 0.3 µM | > 10 µM | > 10 µM | 0.136 µM | > 10 µM | > 1 µM | > 0.001 µM | > 10 µM | > 10 µM | > 20 µM | > 10 µM | 0.0156 µM | > 1 µM | 0.00406 µM | > 10 µM | > 0.3 µM | 0.284 µM | 3.99 µM | 0.282 µM | 4.61 µM | > 10 µM | > 1 µM | > 1 µM | > 10 µM | > 3 µM | > 10 µM | 0.373 µM | > 2 µM
5 | Ca9-22 (Head and Neck Carcinoma) | 4.67 µM | 0.714 µM | 7.14 µM | > 1 µM | 0.00745 µM | 2.37 µM | 9.4 µM | > 0.3 µM | > 10 µM | > 10 µM | 0.0313 µM | > 10 µM | > 1 µM | > 0.001 µM | > 10 µM | > 10 µM | > 20 µM | > 10 µM | 0.0105 µM | > 1 µM | 0.657 µM | 3.84 µM | 0.0732 µM | > 10 µM | > 10 µM | > 1 µM | 1.37 µM | 2.14 µM | 0.35 µM | > 1 µM | > 10 µM | > 3 µM | > 10 µM | 0.931 µM | 0.229 µM

— the supplement of paper PMC11061612
